Data set [1] deals with Carboxymethylcellulase 5812. Put plainly: Effects of chelating agents, thiol reagents, additives and proteinases on Carboxymethylcellulase 5812. The class given is biochemical, Bacillus sp. PKM-5812. The conditions noted are these: for stimulated the activity of the enzyme by: added at 1 mM; for Relative activity (%): none = 100. As to the method:
(§1) Activities were determined by the DNS method (J. R. Summer and G. F. Somers, Laboratory Experiments in Biological Chemistry, Academic Press, New York, U.S.A., 1944). Namely, 0.1 ml of a suitably diluted enzyme solution was added to 0.9 ml of a 1.1% (w/v) solution of a CMC (A01MC) substrate in 0.1M glycine-NaOH buffer (pH: 9.0). After a 20-minute reaction at 40° C., 1 ml of 0.05% (w/v) 3,5-dinitrosalicylic acid solution (product of Wako Pure Chemical Industries, Ltd.) was added, and the resulting mixture was immediately placed in a boiling water bath for 5 minutes, followed by cooling in an iced water bath. Then, 4 ml of deionized water was added further, afterwhich, colorimetry was conducted by measuring an absorbance at 535 nm. With respect to enzymatic activity, the amount of enzyme, which liberates reducing sugars corresponding to 1 μmole of glucose for 1 minute, was defined as 1 unit.
On the other hand, 2-mercaptoethanol and dithiothreitol, each added at 1 mM, stimulated the activity of the enzyme by 52% and 84%, respectively. It was not observed that the proteinases such as alkalase, maxatase, savinase and Protease API-21 inactivated the enzyme of this invention under this reaction conditions.

The subject of data set [2] is Carboxymethylcellulase 5430. The experiment in a line: Effects of chelating agents, thiol reagents, additives and proteinases on Carboxymethylcellulase 5430. The class given is biochemical, Bacillus sp. PKM-5430. The settings on record: for stimulated the activity of the enzyme by: added at 1 mM; for Relative activity (%): none = 100. The method, then:
as §1
On the other hand, 2-mercaptoethanol and dithiothreitol, each added at 1 mM, stimulated the activity of the enzyme by 39% and 50%, respectively. It was not observed that the proteinases such as alkalase, maxatase, savinase and Protease API-21 inactivated the enzyme of this invention under this reaction conditions.

For data set [3], the system named is Carboxymethylcellulase 5812. The class given is biochemical, Bacillus sp. PKM-5812. The method, then:
as §1
(§2) However, the activity of the enzyme was not inhibited by the other inhibitors.
(§3) *: The enzyme was pretreated at pH 5.5 (50 mM acetate buffer).

The subject of data set [4] is Carboxymethylcellulase 5430. The class given is biochemical, Bacillus sp. PKM-5430. As to the method:
as §1, §2, §3

Data set [5] deals with Carboxymethylcellulase 5430. The experiment in a line: Effects of metal ions on carboxymethylcellulase activity of Carboxymethylcellulase 5430. The class given is biochemical, Bacillus sp. PKM-5430. The conditions noted are these: for Relative activity (%): 20 minutes at 40° C., pH 9.0, none = 100. As to the method: as §1
Among the various metal ions tested, Hg^2+, at 1 mM, inhibited the activity of the enzyme by about 75%. On the contrary, Co^+2, at 1 mM stimulated the activity of the enzyme by about 30% and Mn^+2, at 1 mM, also stimulated the activity by about 50%.

In data set [6] the test system is Carboxymethylcellulase 5812. Put plainly: Effects of metal ions on carboxymethylcellulase activity of Carboxymethylcellulase 5812. The class given is biochemical, Bacillus sp. PKM-5812. The settings on record: for Relative activity (%): 20 minutes at 40° C., pH 9.0, none = 100. The method, then: as §1
Among the various metal ions tested, Hg^2+, at 1 mM, inhibited the activity of the enzyme by about 75%. On the contrary, Co^+2, at 1 mM stimulated the activity of the enzyme by about 50%, and Mn^+2, at 1 mM, also stimulated the activity by 53%.

The test system of data set [7] is Carboxymethylcellulase 5812. Put plainly: Effects of surfactants on carboxymethylcellulase activity of Carboxymethylcellulase 5812. The class given is biochemical, Bacillus sp. PKM-5812. The settings on record: for Relative activity (%): surfactant 0.05%, 20 minutes at 40° C., pH 9.0, none = 100. As to the method: as §1
In particular, SDS and the fatty acid salt stimulated the activity of the enzyme by 21% and 23%, respectively.

Data set [8] concerns Carboxymethylcellulase 5430. Put plainly: Effects of surfactants on carboxymethylcellulase activity of Carboxymethylcellulase 5430. The class given is biochemical, Bacillus sp. PKM-5430. The settings on record: for Relative activity (%): surfactant 0.05%, 20 minutes at 40° C., pH 9.0, none = 100. The method, then:
as §1
In particular, SDS and the fatty acid salt stimulated the activity of the enzyme by 26% and 45%, respectively.

Where [9] appears, read: reagent 1 mM, 20 minutes at 40° C., pH 9.0.
Setting [10] is: inhibitor 1.0 mM, 20 minutes at 40° C., pH 9.0, none = 100.
The mark [11] stands for this setting: metal ion 1 mM, listed as Fe^3+.
Where [12] appears, read: inhibitor 0.1 mM, enzyme pretreated at pH 5.5 (50 mM acetate buffer), none = 100.
The mark [13] stands for this setting: reagent 0.01%, 20 minutes at 40° C., pH 9.0.

Experimental findings from patent publication US5439816A, “Carboxymethylcellulase isolated from bacillus sp. PKM-5430 (FERM BP-4087)” (Kao Corporation, priority 1991, dated 1995) are described below.

Where two headings read alike, the source gives them in different places.

Take `O[C@H](CS)[C@H](O)CS` (racemic) [Dithiothreitol]: the figures for the “stimulated the activity of the enzyme by” value in data set [1] and in data set [2] were 84% and 50%, respectively. Besides, the “Relative activity (%)” value in data set [1] (setting [9]) worked out at 184%; in data set [2] (setting [9]), 150%.

Turning to `OCCS` [2-Mercaptoethanol], the “stimulated the activity of the enzyme by” value in data set [1] is 52%; in data set [2], 39%. In addition, the “Relative activity (%)” value in data set [1] (setting [9]) was 152%; in data set [2] (setting [9]) it was 139%.

For `O=C(O)c1cc[c]([Hg][Cl])cc1` [4-Chloromercuribenzoic acid], the “Relative activity (%)” value was found to be 105% in data set [3] (setting [10]) and 118% in data set [4] (setting [10]).

For the molecule `[Al+3]` [Al^3+], the “Relative activity (%)” value was determined as 101% in data set [5] (metal ion 1 mM) and 97% in data set [6] (metal ion 1 mM).

Consider `[Ca+2]` [Ca^2+], for which the “Relative activity (%)” value in data set [5] (metal ion 1 mM) and in data set [6] (metal ion 1 mM) was 108% in each case.

For the molecule `[Co+2]` [Co^2+], the figures for the “stimulated the activity of the enzyme by” value in data set [5] (at 1 mM) and in data set [6] (at 1 mM) were “about 30%” and “about 50%”, respectively. Also, the entries for the “Relative activity (%)” value in data set [5] (metal ion 1 mM) and in data set [6] (metal ion 1 mM) were 149% and 150%, respectively.

Turning to `[Cu+2]` [Cu^2+], the “Relative activity (%)” value in data set [5] (metal ion 1 mM) is 97%; in data set [6] (metal ion 1 mM), 98%.

As to `O=C(O)CN(CCN(CC(=O)O)CC(=O)O)CC(=O)O` [EDTA], the “effect of chelating agents on enzyme activity” value in data set [1] and in data set [2] was “somewhat inhibited” throughout. Further, the “Relative activity (%)” value in data set [1] (setting [9]) was 79%; in data set [2] (setting [9]), 71%.

Consider `O=C(O)CN(CCOCCOCCN(CC(=O)O)CC(=O)O)CC(=O)O` [EGTA], for which the “effect of chelating agents on enzyme activity” value in data set [1] and in data set [2] was “somewhat inhibited” throughout. In addition, the “Relative activity (%)” value in data set [1] (setting [9]) worked out at 73%; in data set [2] (setting [9]) it was 66%.

`[Fe+2]` [Fe^2+]: the “Relative activity (%)” value in data set [5] (metal ion 1 mM) was 105%; in data set [5] (setting [11]), 110%; in data set [6] (metal ion 1 mM) it was 101%; in data set [6] (setting [11]), 104%.

Consider `[Hg+2]` [Hg^2+], for which the “inhibited the activity of the enzyme by” value in data set [5] (at 1 mM) and in data set [6] (at 1 mM) was “about 75%” in each case. Moreover, the “Relative activity (%)” value in data set [5] (metal ion 1 mM) is 25%; in data set [6] (metal ion 1 mM), 27%.

With `Cl.NO` [Hydroxylamine hydrochloride], the “Relative activity (%)” value in data set [3] (setting [10]) was 123%; in data set [4] (setting [10]), 133%.

Consider `[K+]` [K^+], for which the “Relative activity (%)” value in data set [5] (metal ion 50 mM) is 116%; in data set [6] (metal ion 50 mM), 126%.

For the molecule `[Mg+2]` [Mg^2+], the “Relative activity (%)” value in data set [5] (metal ion 1 mM) is 108%; in data set [6] (metal ion 1 mM), 109%.

Take `[Mn+2]` [Mn^2+]: the “stimulated the activity of the enzyme by” value in data set [5] (at 1 mM) was “about 50%”; in data set [6] (at 1 mM), 53%. The “Relative activity (%)” value in data set [5] (metal ion 1 mM) was 130%; in data set [6] (metal ion 1 mM) it was 153%.

Consider `O=C(O)CI` [Monoiodo acetic acid], for which the “Relative activity (%)” value in data set [3] (pH 9) worked out at 104%; in data set [4] (pH 9), 117%.

On to `O=C1CCC(=O)N1Br` [N-Bromosuccinimide], for which the “inhibited the activity of this enzyme by” value in data set [3] and in data set [4] was 97% each time. For the same molecule, the entries for the “Relative activity (%)” value in data set [3] (setting [12]) and in data set [4] (setting [12]) were 3% and 4%, respectively.

Take `[Na+]` [Na^+]: the “Relative activity (%)” value turned out to be 121% in data set [5] (metal ion 50 mM) and 120% in data set [6] (metal ion 50 mM).

Turning to `[Pb+2]` [Pb^2+], the “Relative activity (%)” value in data set [5] (metal ion 1 mM) amounted to 81%; in data set [6] (metal ion 1 mM), 93%.

Turning to `O=S(=O)(F)Cc1ccccc1` [Phenylmethanesulfonyl fluoride, phenylmethanesulfonyl fluoride], the results for the “Relative activity (%)” value in data set [3] (setting [10]) and in data set [4] (setting [10]) were 107% and 76%, respectively. Also, in data set [4], the “inhibited the activity of this enzyme by” value was determined as 24%.

Consider `CCCCCCCCCCCCOS(=O)(=O)[O-].[Na+]` [SDS, sodium dodecyl sulfate], for which, in data set [7], the “effect of surfactants on enzyme activity” value is “either scarcely inhibited or stimulated”, the “stimulated the activity of the enzyme by” value is reported as 21% and the “Relative activity (%)” value is 121%. Besides, in data set [8], the “effect of surfactants on enzyme activity” value is reported as “either scarcely inhibited or stimulated”, the “stimulated the activity of the enzyme by” value worked out at 26% and the “Relative activity (%)” value came out at 126%.

`[N-]=[N+]=[N-]` [Sodium azide]: the entries for the “Relative activity (%)” value in data set [3] (setting [10]) and in data set [4] (setting [10]) were 117% and 118%, respectively.

In the case of `[Zn+2]` [Zn^2+], the “Relative activity (%)” value is given as 92% in data set [5] (metal ion 1 mM) and 96% in data set [6] (metal ion 1 mM).

Take `c1cnc2c(c1)ccc1cccnc12` [o-Phenanthroline]: the “Relative activity (%)” value in data set [1] (setting [9]) is 100%; in data set [2] (setting [9]), 98%.

On to sodium alkyl sulfate [AS], for which, in data set [7], the “effect of surfactants on enzyme activity” value is given as “either scarcely inhibited or stimulated” and the “Relative activity (%)” value is recorded as 112%. Also, in data set [8], the “effect of surfactants on enzyme activity” value is recorded as “either scarcely inhibited or stimulated” and the “Relative activity (%)” value is listed as 123%.

As to “sodium linear alkylbenzenesulfonate [LAS]”, in data set [7], the “effect of surfactants on enzyme activity” value is reported as “either scarcely inhibited or stimulated” and the “Relative activity (%)” value is 96%. Further, in data set [8], the “effect of surfactants on enzyme activity” value is listed as “either scarcely inhibited or stimulated” and the “Relative activity (%)” value is given as 105%.

“sodium polyoxyethylene alkyl sulfate [ES]”: in data set [7], the “effect of surfactants on enzyme activity” value was “either scarcely inhibited or stimulated” and the “Relative activity (%)” value was 112%. Moreover, in data set [8], the “effect of surfactants on enzyme activity” value is “either scarcely inhibited or stimulated” and the “Relative activity (%)” value amounted to 102%.

sodium α-olefin sulfonate [AOS]: in data set [7], the “effect of surfactants on enzyme activity” value was “either scarcely inhibited or stimulated” and the “Relative activity (%)” value amounted to 105%. Also, in data set [8], the “effect of surfactants on enzyme activity” value was “either scarcely inhibited or stimulated” and the “Relative activity (%)” value worked out at 107%.

“sodium α-sulfonated fatty acid ester [α-SFE]”: in data set [7], the “effect of surfactants on enzyme activity” value is “either scarcely inhibited or stimulated” and the “Relative activity (%)” value worked out at 97%. In data set [8], the “effect of surfactants on enzyme activity” value is given as “either scarcely inhibited or stimulated” and the “Relative activity (%)” value came to 116%.

B1: Alkalase: proteinase (protein, UniProt P00780 106-379, looked up)
Subtilisin Carlsberg: AQTVPYGIPLIKADKVQAQGFKGANVKVAVLDTGIQASHPDLNVVGGASFVAGEAYNTDGNGHGTHVAGTVAALDNTTGVLGVAPSVSLYAVKVLNSSGSGSYSGIVSGIEWATTNGMDVINMSLGGASGSTAMKQAVDNAYAKGVVVVAAAGNSGSSGNTNTIGYPAKYDSVIAVGAVDSNSNRASFSSVGAELEVMAPGAGVYSTYPTNTYATLNGTSMASPHVAGAAALILSKHPNLSASQVRNRLSSTATYLGSSFYYGKGLINVEAAAQ
For the molecule B1, the “inactivation of the enzyme by proteinases” value in data set [1] (20 minutes at 40° C., pH 9.0) is on record as “not observed”; in data set [2] (20 minutes at 40° C., pH 9.0), “not observed”. The “Relative activity (%)” value worked out at 107% in data set [1] (setting [13]) and 111% in data set [2] (setting [13]).
